Structures can show the parent of a compound that is named as a salt. Each block holds one compound with its values, some of them ahead of it.
How the values were obtained:
[1] = tested on: proteins described in Table 50; assay: DLS diffusion interaction parameter kD (Example 49); format: physicochemical; conditions: mixed 1:1 with protein solution, 20 mM His HCl pH 6, 25° C.
Protocol: The resulting solution was titrated to pH 6 by dropwise addition of 1 M hydrochloric acid. After pH adjustment, the buffer was diluted to a final volume of 1 L in a volumetric flask with Type 1 ultrapure water. All excipients used in this Example, listed in Table 50 below, were of the highest purity, and were obtained from Sigma Aldrich (St. Louis, MO) or Cayman Chemical (Ann Arbor, MI).
A series of six test protein solutions were prepared using the proteins described in Table 50, ranging in protein concentration from about 4 mg/mL to about 20 mg/mL, all in 20 mM His HCl buffer at pH 6. […] A second centrifuge step was completed to remove air bubbles. The diffusion interaction parameter (kD) of these protein-excipient formulations was measured by dynamic light scattering (DLS) in dilute solution as a way of probing the impact of excipients on protein-protein interactions (PPI). […] A more negative kD indicated a stronger net attractive PPI and a more positive kD indicated a stronger net repulsive PPI.

ustekinumab = assay: Stabilization at low pH, Sypro orange fluorescence (Example 45); conditions: excipient 5 mg/mL, ustekinumab 1 mg/mL, glycine acidification buffer pH 2.6, Sypro orange fluorescence
[2] = Caffeine solubility with co-solutes during refrigerated storage (Example 61); format: physicochemical; design: key: (PPT)—precipitate observed; (—)—clear solution observed; conditions: 50 mM co-solute, 25 mM histidine pH 6, stored 2 to 5° C.
Protocol: The resulting microplates were then sealed with microplate tape and stored in a refrigerator with the temperature maintained in the range of 2 to 5° C. Over the course of storage, the microplates were visually observed for evidence of precipitate in the well.

[3] = excipient stock concentration 100 mM
[4] = excipient stock concentration 200 mM

Compound: Cl.NCC(O)c1ccc(O)c(O)c1 (racemic) [DL-Norepinephrine HCl]
Omalizumab kD [1, 3]: -19.8 mL/g
Ustekinumab kD [1, 3]: 1.5 mL/g

Compound: Cn1cnc(CC(=O)O)c1 [1-methyl-4-imidazoleacetic acid]
Omalizumab kD [1, 4]: -21.8 mL/g
Ustekinumab kD [1, 4]: 47.4 mL/g

Compound: C1COCCOCCOCCOCCO1 [15-crown-5 ether]
Omalizumab kD [1, 4]: -25.0 mL/g
Ustekinumab kD [1, 4]: 26.7 mL/g

Compound: NC(=NO)c1ccccc1 [Benzamide oxime]
% change in stability (ustekinumab): 70.6%

Compound: CC(=O)CC(=O)OCc1ccccc1 [Benzyl acetonacetate]
Omalizumab kD [1, 3]: -27.0 mL/g
Ustekinumab kD [1, 3]: 26.6 mL/g

Compound: N[C@@H]1CON=C1O [Cycloserine]
Omalizumab kD [1, 4]: -14.7 mL/g
Ustekinumab kD [1, 4]: -13.6 mL/g

Compound: Nc1ccn([C@@H]2O[C@H](COP(=O)(O)O)[C@@H](O)[C@H]2O)c(=O)n1 [Cytidine monophosphate]
% change in stability (ustekinumab): 83.1%

Compound: O=C(O)CN(CCN(CC(=O)O)CC(=O)O)CCN(CC(=O)O)CC(=O)O [Diethylenetriaminepentaacetic acid]
% change in stability (ustekinumab): 11.8%

Compound: Nc1nc(=O)n([C@@H]2CS[C@H](CO)O2)cc1F [Emtricitabine]
% change in stability (ustekinumab): 2.9%

Compound: COc1cc(CC(=O)O)ccc1O [Homovanillic acid]
Omalizumab kD [1, 4]: -21.2 mL/g
Ustekinumab kD [1, 4]: 5.5 mL/g

Compound: O=C(O)C1=CCNCC1 [Isoguvacine HCl]
Omalizumab kD [1, 4]: -7.9 mL/g
Ustekinumab kD [1, 4]: 1.0 mL/g

Compound: CN1CCCC1=O [N-Methyl-2-pyrrolidone]
Day 1 (visual observation for precipitate) ([2]; caffeine 7.5 mg/mL): —
Day 7 (visual observation for precipitate) ([2]; caffeine 7.5 mg/mL): —
Day 18 (visual observation for precipitate) ([2]; caffeine 7.5 mg/mL): —
Day 27 (visual observation for precipitate) ([2]; caffeine 7.5 mg/mL): —
Day 56 (visual observation for precipitate) ([2]; caffeine 7.5 mg/mL): —
Day 1 (visual observation for precipitate) ([2]; caffeine 10 mg/mL): —
Day 7 (visual observation for precipitate) ([2]; caffeine 10 mg/mL): —
Day 18 (visual observation for precipitate) ([2]; caffeine 10 mg/mL): —
Day 27 (visual observation for precipitate) ([2]; caffeine 10 mg/mL): —
Day 56 (visual observation for precipitate) ([2]; caffeine 10 mg/mL): —
Day 1 (visual observation for precipitate) ([2]; caffeine 12.5 mg/mL): —
Day 7 (visual observation for precipitate) ([2]; caffeine 12.5 mg/mL): —
Day 18 (visual observation for precipitate) ([2]; caffeine 12.5 mg/mL): —
Day 27 (visual observation for precipitate) ([2]; caffeine 12.5 mg/mL): —
Day 56 (visual observation for precipitate) ([2]; caffeine 12.5 mg/mL): PPT
Day 1 (visual observation for precipitate) ([2]; caffeine 15 mg/mL): —
Day 7 (visual observation for precipitate) ([2]; caffeine 15 mg/mL): —
Day 18 (visual observation for precipitate) ([2]; caffeine 15 mg/mL): PPT
Day 27 (visual observation for precipitate) ([2]; caffeine 15 mg/mL): PPT
Day 56 (visual observation for precipitate) ([2]; caffeine 15 mg/mL): PPT
Day 1 (visual observation for precipitate) ([2]; caffeine 20 mg/mL): PPT
Day 7 (visual observation for precipitate) ([2]; caffeine 20 mg/mL): PPT
Day 18 (visual observation for precipitate) ([2]; caffeine 20 mg/mL): PPT
Day 27 (visual observation for precipitate) ([2]; caffeine 20 mg/mL): PPT
Day 56 (visual observation for precipitate) ([2]; caffeine 20 mg/mL): PPT

Compound: NC(=O)CN1CCCC1=O [Piracetam]
Omalizumab kD [1, 4]: -23.6 mL/g
Ustekinumab kD [1, 4]: 27.3 mL/g

Compound: O=C([O-])c1ccccc1.[Na+] [Sodium benzoate]
Day 1 (visual observation for precipitate) ([2]; caffeine 7.5 mg/mL): —
Day 7 (visual observation for precipitate) ([2]; caffeine 7.5 mg/mL): —
Day 18 (visual observation for precipitate) ([2]; caffeine 7.5 mg/mL): —
Day 27 (visual observation for precipitate) ([2]; caffeine 7.5 mg/mL): —
Day 56 (visual observation for precipitate) ([2]; caffeine 7.5 mg/mL): —
Day 1 (visual observation for precipitate) ([2]; caffeine 10 mg/mL): —
Day 7 (visual observation for precipitate) ([2]; caffeine 10 mg/mL): —
Day 18 (visual observation for precipitate) ([2]; caffeine 10 mg/mL): —
Day 27 (visual observation for precipitate) ([2]; caffeine 10 mg/mL): —
Day 56 (visual observation for precipitate) ([2]; caffeine 10 mg/mL): —
Day 1 (visual observation for precipitate) ([2]; caffeine 12.5 mg/mL): —
Day 7 (visual observation for precipitate) ([2]; caffeine 12.5 mg/mL): —
Day 18 (visual observation for precipitate) ([2]; caffeine 12.5 mg/mL): —
Day 27 (visual observation for precipitate) ([2]; caffeine 12.5 mg/mL): —
Day 56 (visual observation for precipitate) ([2]; caffeine 12.5 mg/mL): —
Day 1 (visual observation for precipitate) ([2]; caffeine 15 mg/mL): —
Day 7 (visual observation for precipitate) ([2]; caffeine 15 mg/mL): —
Day 18 (visual observation for precipitate) ([2]; caffeine 15 mg/mL): —
Day 27 (visual observation for precipitate) ([2]; caffeine 15 mg/mL): —
Day 56 (visual observation for precipitate) ([2]; caffeine 15 mg/mL): PPT
Day 1 (visual observation for precipitate) ([2]; caffeine 20 mg/mL): —
Day 7 (visual observation for precipitate) ([2]; caffeine 20 mg/mL): —
Day 18 (visual observation for precipitate) ([2]; caffeine 20 mg/mL): PPT
Day 27 (visual observation for precipitate) ([2]; caffeine 20 mg/mL): PPT
Day 56 (visual observation for precipitate) ([2]; caffeine 20 mg/mL): PPT

Compound: O.O.O.O.O.O.O.O.O.O.[Na+].[Na+].[O-]B1OB2OB([O-])OB(O1)O2 [Sodium borate]
Omalizumab kD [1, 4]: -28.8 mL/g
Ustekinumab kD [1, 4]: 17.9 mL/g

Compound: CN(C)CCN(C)C.Cl [Tetramethylethylenediamine HCl]
Omalizumab kD [1, 4]: -14.6 mL/g
Ustekinumab kD [1, 4]: 0.1 mL/g

Compound: Cc1ncc(CO)c(CO)c1O.Cl [pyridoxine HCl]
Omalizumab kD [1, 4]: -4.3 mL/g
Ustekinumab kD [1, 4]: -0.5 mL/g

More lines, now with the values ahead:

Omalizumab kD [1, 4]: -30.2 mL/g
Ustekinumab kD [1, 4]: 26.7 mL/g
Compound: O=S(=O)([O-])CCC[n+]1ccccc1 [3-(1-Pyridinio)-1-propanesulfonate]

Omalizumab kD [1, 4]: -17.4 mL/g
Ustekinumab kD [1, 4]: 1.5 mL/g
Compound: Nc1ccc(C(=O)O)cc1 [4-Aminobenzoic acid]

Omalizumab kD [1, 4]: -26.6 mL/g
Ustekinumab kD [1, 4]: 21.0 mL/g
Compound: COc1cc(C=CC(=O)O)ccc1O [4-hydroxy-3-methoxycinnamic acid]

Day 1 (visual observation for precipitate) ([2]; caffeine 7.5 mg/mL): —
Day 7 (visual observation for precipitate) ([2]; caffeine 7.5 mg/mL): —
Day 18 (visual observation for precipitate) ([2]; caffeine 7.5 mg/mL): —
Day 27 (visual observation for precipitate) ([2]; caffeine 7.5 mg/mL): —
Day 56 (visual observation for precipitate) ([2]; caffeine 7.5 mg/mL): —
Day 1 (visual observation for precipitate) ([2]; caffeine 10 mg/mL): —
Day 7 (visual observation for precipitate) ([2]; caffeine 10 mg/mL): —
Day 18 (visual observation for precipitate) ([2]; caffeine 10 mg/mL): —
Day 27 (visual observation for precipitate) ([2]; caffeine 10 mg/mL): —
Day 56 (visual observation for precipitate) ([2]; caffeine 10 mg/mL): —
Day 1 (visual observation for precipitate) ([2]; caffeine 12.5 mg/mL): —
Day 7 (visual observation for precipitate) ([2]; caffeine 12.5 mg/mL): —
Day 18 (visual observation for precipitate) ([2]; caffeine 12.5 mg/mL): —
Day 27 (visual observation for precipitate) ([2]; caffeine 12.5 mg/mL): —
Day 56 (visual observation for precipitate) ([2]; caffeine 12.5 mg/mL): —
Day 1 (visual observation for precipitate) ([2]; caffeine 15 mg/mL): —
Day 7 (visual observation for precipitate) ([2]; caffeine 15 mg/mL): —
Day 18 (visual observation for precipitate) ([2]; caffeine 15 mg/mL): —
Day 27 (visual observation for precipitate) ([2]; caffeine 15 mg/mL): PPT
Day 56 (visual observation for precipitate) ([2]; caffeine 15 mg/mL): PPT
Day 1 (visual observation for precipitate) ([2]; caffeine 20 mg/mL): —
Day 7 (visual observation for precipitate) ([2]; caffeine 20 mg/mL): PPT
Day 18 (visual observation for precipitate) ([2]; caffeine 20 mg/mL): PPT
Day 27 (visual observation for precipitate) ([2]; caffeine 20 mg/mL): PPT
Day 56 (visual observation for precipitate) ([2]; caffeine 20 mg/mL): PPT
Compound: OCc1ccccc1 [Benzyl alcohol]

Omalizumab kD [1, 3]: -26.4 mL/g
Ustekinumab kD [1, 3]: 15.2 mL/g
Compound: CCN(CC)CCCC(C)Nc1ccnc2cc(Cl)ccc12 (stereo not shown) [Chloroquine Phosphate]

Omalizumab kD [1, 4]: -24.1 mL/g
Ustekinumab kD [1, 4]: 24.0 mL/g
Compound: Nn1nnc2ccccc21 [Excipient 1-aminobenzotriazole, 1-aminobenzotriazole]

Omalizumab kD [1, 4]: -24.5 mL/g
Ustekinumab kD [1, 4]: -0.5 mL/g
Compound: Cc1ncc[nH]1 [Excipient 2-Methylimidazole, 2-Methylimidazole]

Ustekinumab kD [1, 3]: 36.1 mL/g
Compound: N=C(N)NC(=O)Cc1c(Cl)cccc1Cl [Guanfacine HCl]

Omalizumab kD [1, 4]: -29.1 mL/g
Ustekinumab kD [1, 4]: 33.2 mL/g
Compound: O=c1cc(CO)occ1O [Kojic Acid]

Omalizumab kD [1, 3]: -24.1 mL/g
Ustekinumab kD [1, 3]: 26.5 mL/g
Compound: C#CCN[C@@H]1CCc2ccccc21 [rasagiline mesylate]
